Here are results for four compounds from US6960591B2, “Propane-1,3-dione derivative” (Yamanouchi Pharmaceutical Co., Ltd., priority 2000, dated 2005).

Structures are written as SMILES. Counter-ions that a name gives are not always drawn.

In the experiment the target is T1, human GnRH receptor (Homo sapiens, UniProt P30968).
T1 construct: expressed in transfected cells; membrane fraction
T1 sequence (P30968 1-328): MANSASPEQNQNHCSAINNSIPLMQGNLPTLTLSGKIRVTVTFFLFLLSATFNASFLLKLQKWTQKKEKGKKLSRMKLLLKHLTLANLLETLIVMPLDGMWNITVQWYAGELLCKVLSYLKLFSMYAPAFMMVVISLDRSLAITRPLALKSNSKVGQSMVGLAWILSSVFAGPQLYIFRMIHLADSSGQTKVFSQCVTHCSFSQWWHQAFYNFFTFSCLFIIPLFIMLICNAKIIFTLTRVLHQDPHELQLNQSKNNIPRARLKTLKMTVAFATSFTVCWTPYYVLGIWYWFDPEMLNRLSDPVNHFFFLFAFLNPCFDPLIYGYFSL
Nature of the experiment: Test of in vitro GnRH receptor antagonism: 125I-D-Trp6-LHRH binding inhibition. The settings on record: inhibition of 0.1 nM 125I-D-Trp6-LHRH binding; membrane fractions of CHO cells expressing human GnRH receptor; 4° C. for 3 hours; read-out: IC50 value (concentration at which PMB equals 50%). As for the experimental part: In the following, in vitro GnRH receptor antagonistic effect of the pharmaceutical drugs and compounds of the invention was evaluated by inhibition of binding of ^125I-D-Trp^6-LHRH to human GnRH receptor.
1. Test of In Vitro GnRH Receptor Antagonism
(1) Preparation of Human GnRH Receptor-Expressing CHO (Chinese Hamster Ovary) Cells
Expression of human […] was carried out in a similar manner to a common method for protein expression (Chapter 9 In: Current Protocols In Molecular Biology: ed. by F. M. Ausubel et al., Greene Publishing Associates and Wiley-Interscience, 9.0.1-9.9.6 (1987), S. S. Kaker et al., Biol. Biophys. Res. Commun. 189, 289-295 (1992), R. Grosse et al., Mol. Endocrinol. 11, 1305-1318 (1997)). CHO cells were cultured (medium: αMEM, 10% FCS, containing an antibiotic-antimycotic agent) with an expression vector which has human GnRH receptor gene (SEQ ID No.: 1) and a transfection reagent FuGENE6 (manufactured by Boehringer-Mannheim) for 24 hours for transfection, whereby the CHO cells stably expressing human GnRH receptor (SEQ ID No.: 2, S. S. Kaker et al., Biol. Biophys. Res. Commun, 189, 289-295 (1992)) were obtained. The expression of the aimed receptor was confirmed by PCR method.
(2) Preparation of CHO Cell Membrane Fraction Containing Human GnRH Receptor
The CHO cells expressing the human GnRH receptor (3×10^8 cells), prepared in the above (1), were suspended in phosphate buffered saline (PBS) and centrifuged for 3 minutes at 100×G. The pellet suspended in 100 ml of a homogenate buffer (10 mM NaHCO3, 5 mM EDTA (ethylenediaminetetraacetic acid), pH 7.5) was homogenized using a Polytron homogenizer. After the resulting homogenate was centrifuged for 15 minutes at 400×G, the supernatant was centrifuged for 1 hour at 100,000×G. The membrane fraction obtained as a pellet was suspended in 60 ml of storage buffer (25 mM Tris-HCl, 1 mM EDTA, 10 μg/ml a protease inhibitor (Pefabloc SC (manufactured by Merck)), 1 μg/ml pepstatin A, 20 μg/ml leupeptin, 0.03% sodium azide, pH 7.5), and stored at −80° C. until use. […]
The membrane fractions of CHO cells expressing the human GnRH receptor which were prepared in the above (2) were diluted with assay buffer (HBSS (Hanks balanced salt solution), 20 mM HEPES, 0.1% BSA (bovine serum albumin), 100 μg/ml bacitracin, pH 7.4) so as to be 20 μg/tube, and were dispensed into tubes in an amount of 148 μl. […] The filters were washed three times with 1 ml of assay buffer and the radioactivity on the filter was measured using a γ-counter. Binding inhibition (%) (PMB) of each test compound at various concentrations were determined according to the following equation: PMB=(SB−NSB)/(TB−NSB)×100 (wherein TB: total binding radioactivity, SB: radioactivity when a test compound was added, NSB: non-specific binding radioactivity). […]
Take `Nc1cccc(C(=O)C(C(=O)c2cc(F)cc(F)c2)=C2Nc3ccccc3N2)c1` [Example 40, 1-(3-aminophenyl)-3-(3,5-difluorophenyl)-2-(1,3-dihydro-2H-benzimidazol-2-ylidene)propane-1,3-dione hydrochloride]: the IC50 was in the range of 0.1 to 1 nM.

On to `O=C(C(C(=O)c1cc(F)cc(F)c1)=C1Nc2ccc(OCc3cccnc3)cc2N1)c1ccccc1` [Example 402, 1-(3,5-difluorophenyl)-2-[5-(pyridin-3-ylmethoxy)-1,3-dihydro-2H-benzimidazol-2-ylidene]-3-phenylpropane-1,3-dione oxalate], for which the IC50 was 0.1 to 1 nM.

As to `O=C(C(C(=O)c1cccc(NCc2c[nH]cn2)c1)=C1Nc2ccccc2N1)c1cc(F)cc(F)c1` [Example 83, 1-(3,5-difluorophenyl)-2-(1,3-dihydro-2H-benzimidazol-2-ylidene)-3-{3-[(1H-imidazol-4-ylmethyl)amino]phenyl}propane-1,3-dione hydrochloride], the IC50 was in the range of 0.1 to 1 nM.

For the compound `O=C(C(C(=O)c1cccc(CNCCc2ccncc2)c1)=C1Nc2ccccc2N1)c1ccccc1` [Example 79, 2-(1,3-dihydro-2H-benzimidazol-2-ylidene)-1-phenyl-3-(3-{[(2-pyridin-4-ylethyl)amino]methyl}phenyl)propane-1,3-dione hydrochloride], the IC50 fell in the range of 0.1 to 1 nM.
